Results published in EP4806891A1 (Kangbaida (Sichuan) Biotechnology Co., Ltd., priority 2023, dated 2025).

These molecules were tested against T1, HEK-Blue-hTLR9 cells (Homo sapiens, UniProt Q9NR96) (assay: HEK-Blue-hTLR9 cell inhibition assay). Details: ODN2006 1 µM, 16 h, OD 620 nm, read-out: TLR9 IC50.
T1 construct: expressed in transfected cells; host or cells: HEK-Blue-hTLR9 cells (HEK293-derived reporter line)
T1 sequence (Q9NR96 26-1032): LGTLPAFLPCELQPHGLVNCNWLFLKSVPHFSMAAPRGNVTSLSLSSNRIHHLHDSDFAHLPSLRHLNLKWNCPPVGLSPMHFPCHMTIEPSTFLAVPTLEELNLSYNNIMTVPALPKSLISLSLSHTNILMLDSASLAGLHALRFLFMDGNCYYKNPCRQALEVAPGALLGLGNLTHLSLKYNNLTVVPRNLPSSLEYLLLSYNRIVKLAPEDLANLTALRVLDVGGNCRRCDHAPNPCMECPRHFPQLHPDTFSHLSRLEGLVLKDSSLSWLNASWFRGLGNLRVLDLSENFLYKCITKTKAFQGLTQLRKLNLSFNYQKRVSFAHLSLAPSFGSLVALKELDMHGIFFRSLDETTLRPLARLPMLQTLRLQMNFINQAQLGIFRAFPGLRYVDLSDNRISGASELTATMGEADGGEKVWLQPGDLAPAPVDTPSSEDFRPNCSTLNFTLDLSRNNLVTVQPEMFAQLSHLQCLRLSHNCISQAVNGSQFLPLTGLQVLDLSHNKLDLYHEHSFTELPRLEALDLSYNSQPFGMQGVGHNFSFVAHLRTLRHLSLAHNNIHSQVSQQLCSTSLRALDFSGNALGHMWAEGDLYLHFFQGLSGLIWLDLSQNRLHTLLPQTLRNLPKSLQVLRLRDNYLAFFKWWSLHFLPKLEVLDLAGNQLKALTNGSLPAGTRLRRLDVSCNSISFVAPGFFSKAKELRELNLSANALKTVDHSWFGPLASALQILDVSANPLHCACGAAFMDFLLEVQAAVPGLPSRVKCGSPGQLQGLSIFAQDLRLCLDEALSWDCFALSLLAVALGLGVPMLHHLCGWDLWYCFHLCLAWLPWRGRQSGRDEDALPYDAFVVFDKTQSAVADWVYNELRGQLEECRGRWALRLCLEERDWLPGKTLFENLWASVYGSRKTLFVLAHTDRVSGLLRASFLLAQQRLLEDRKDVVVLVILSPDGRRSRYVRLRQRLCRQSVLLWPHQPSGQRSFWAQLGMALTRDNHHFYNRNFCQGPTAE
Assay type: cell-based
Procedure, shortened: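 Cells were pre-incubated 4 h, then co-treated 16 h at 37 °C with compound (10 doses, 0.5–10000 nM final) plus R848 (0.8 µM for TLR7, 3 µM for TLR8) or ODN2006 (1 µM, TLR9). Reporter OD620 gave inhibition relative to DMSO blank and agonist-only controls; IC50 came from curve fitting.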

IC50 | Compound
> 1000 nM | CN1CC(Cc2nnc([C@]34CN(c5ccc(C(F)(F)F)c6ncccc56)C[C@@]3(C(F)(F)F)C4)o2)C1 [Compound 95, 2-((1-methylazetidin-3-yl)methyl)-5-((1S,5R)-5-(trifluoromethyl)-3-(8-(trifluoromethyl)quinolin-5-yl)-3-azabicyclo[3.1.0]hexan-1-yl)-1,3,4-oxadiazole]
> 1000 nM | FC(F)(F)Oc1ccc(N2C[C@]3(c4nnc(C5(F)CCNCC5)o4)C[C@]3(C(F)(F)F)C2)c2cccnc12 [Compound 96, 2-(4-fluoropiperidin-4-yl)-5-((1S,5R)-3-(8-(trifluoromethoxy)quinolin-5-yl)-5-(trifluoromethyl)-3-azabicyclo[3.1.0]hexan-1-yl)-1,3,4-oxadiazole]

Compound | IC50
CN1CCC(O)(c2nnc([C@]34CN(c5ccc(C(F)(F)F)c6ncccc56)C[C@@]3(C(F)(F)F)C4)o2)CC1 [Compound 94, 1-methyl-4-(5-((1S,5R)-5-(trifluoromethyl)-3-(8-(trifluoromethyl)quinolin-5-yl)-3-azabicyclo[3.1.0]hexan-1-yl)-1,3,4-oxadiazol-2-yl)piperidin-4-ol] | > 1000 nM
